{"source": "patent US12600925B2", "about": "“Laundry sanitizing and softening compositions” (Reckitt Benckiser LLC, priority 2023, dated 2026)", "tested_on": "Staphylococcus epidermidis", "assay": "Minimum inhibitory concentration, BKC / polymer synergy, 96-well microtiter", "format": "cell-based", "settings": "second test (lower line of each polymer); 24 h, 37° C.; 100% active", "description": "Take well-defined and typical colonies of Staphylococcus epidermidis from a recent plate of tryptic soy agar (TSA), dissolve and vortex them in a tube containing 30 mL of tryptic soy broth (TSB) and incubate for 17+/−1h at 37° C.+/−1° C. Quantify by plate count in TSA (incubated for 48h+/−1h at 37° C.+/−1° C.). Use the broth culture suspension within seven (7) days after the incubation period. Vortex and take 0.2 mL from the broth culture and dilute in appropriate volume of 0.85% NaCl to normalize the strain at 3-5×10^5 CFU/mL Using a micropipette, add 100 μL of TSB in a 96-well microtiter plate format. […] (both samples are the same) Using a micropipette take 100 μL of the sample from column 2 and dilute it in column 3 performing a 1:1 dilution with the diluent already present in the wells, proceeding with a serial dilution up to column 9. Discard the remaining 100 μL. […] Dispense 100 μL of inoculum using a micropipette into each well in columns 2 to 10. Columns 1 and 11 are the sample sterility test and negative test control columns, respectively. No growth should be observed in these columns. Column 10 is the positive test control and growth should be observed. […] Incubate the microwell plate for 24h+/−1h at 37° C.+/−1° C. The minimum inhibitory concentration (MIC) is determined by visually checking the wells for growth. […]", "data": [{"substance": "C12-16 alkyldimethylbenzylammonium chloride [BKC]", "values": [{"measurement": "BKC MIC in ppm alone", "value": "0.3-0.8 ppm"}]}]}
